Measured values taken from US9474763B2, “Compositions and methods for amelioration and prevention of drug-induced toxicity” (priority 2012, dated 2016).
Where two headings read alike, the source gives them in different places.

How the values were obtained:
[1] = system: ConA-activated splenocytes; test: IFN-γ secretion by ConA-activated splenocytes from treated mice (ELISA); type: cell-based; details: FIG. 5; groups A, B, C, D of Table 24; 5 μg ConA, 20 h; p=NS
Method: After mice were sacrificed, spleens from five mice from each group were taken and splenocytes were isolated by the following procedure: Isolation of splenocytes: Spleens were stored in RPMI-1640 medium supplemented with FCS. Spleens were crushed through a 70-μm nylon cell strainer (Falcon) and centrifuged (1,250 rpm for 7 min.). Red blood cells were lysed in 1 ml of cold 155 mM ammonium chloride lysis buffer. Splenocytes were washed and resuspended in 1 ml of RPMI supplemented with FCS. The viability of cells as assessed by trypan blue exclusion exceeded 90%. Next, splenocytes (1×10^6 per mouse, per well, in duplicates) were moved into a 24 well plate containing RPMI-1640 supplemented with 10% FCS, 1% penicillin/streptomycin (P/S), 1% glutamine, 1% sodium pyruvate and 1% non-essential amino acid. […] After incubation cells from all wells were moved to Eppendorff tubes and centrifuged for 5 minutes. Then supernatants were collected and freezed in −80° C. until assayed for IFN-γ by ELISA. Cytokine determination: Levels of IFN-γ were determined by “sandwich” ELISA using commercial kit according to the manufacturer's instructions (Quantikine, R&D Systems, Minneapolis, Minn., USA).

toxicity induced by APAP [2] = test: Liver biopsy histology (H&E) 24 h after APAP administration; type: in vivo, mice
Method: In addition, liver biopsies were performed. For histopathology, livers from individual mice were fixed in 10% formaldehyde solution and kept at room temperature until use. The tissue blocks were then embedded in paraffin, […] sections were cut and stained with hematoxylin and eosin (H&E) for morphological examination. […] Improved liver architecture with no evidence for cellular damage and necrosis can be seen in all treated groups.

toxicity induced by APAP [3] = details: for effect on liver enzymes serum levels: Example 2, Tables 3 and 4, 0.1-0.4 mg/mouse with APAP 4 mg; for beneficial effect on acetaminophen-induced liver toxicity: mice, administered together with, or following, large dosage of acetaminophen
Method: IB was tested for its effect on toxicity induced by APAP in comparison to NAC using the following procedure: Mice were allocated into four groups of six mice each, as described in Table 1 below. The mice received sub-lethal hepatotoxic doses of APAP, causing liver damage equivalent to consumption of approximately 10 gr APAP (20 caplets of 500 mg) per 70 kg man.
Food was taken on the afternoon (18:00) of Day 0. Mice were orally administered APAP, APAP+IB or APAP+NAC 15 h hours later (9:00 next morning, Day 1) by gavage administration. A total of 350 μl were administered, containing the different components in the desired concentrations in PBS. Food was returned 2 h after APAP administration (Day 1). For all groups, mice were weighted daily, and blood samples were taken 24 h hours after APAP administration (Day 2). Serum levels of the liver enzymes aspartate aminotransferase (AST) and alanine aminotransferase (ALT) were measured using a Reflovet® Plus clinical chemistry analyzer (Roche Diagnostics, GmbH, Mannheim, Germany). Serum samples were diluted before the measurements, as needed.
The following combinations were tested using the same procedure described in Example 1 above, and compared to 4 mg APAP+3 or 3.5 mg NAC: […]
This combination was tested for its effect on toxicity induced by APAP using the procedure described in Example 1 above. […]
Mice were treated according to the procedure describe in Example 1 above.

[4] = Body weight of fasted mice given APAP (weight ratio / difference between days); type: in vivo
Source text: Table 9 presents the effect of each combination on body weight loss, as determined by the ratio of the mice body weight between Day 0 and Day 2.
Table 12 presents the effect of each combination on body weight loss, as determined by the ratio of the mice body weight between Day 0 and Day 2 and by the difference in the mice body weight between Day 1 (immediately after administration of APAP with the different combinations and before food was returned) and Day 2.
Table 18 presents the effect of each combination on body weight, as determined by the difference in the mice body weight between Day 1 (immediately after administration of APAP with the different combinations and before food was returned) and Day 2.
This combination was tested for its effect on toxicity induced by APAP using the procedure described in Example 1 above with several modifications, as described below. Mice were allocated into four groups of six mice each, as detailed in Table 19 below. Food was taken on the afternoon (18:00) of Day 0. Mice were orally administered APAP 15 hours later (9:00 next morning, Day 1) by gavage administration. NAC was administered PO with APAP. MSM+IB were administered 1.5 h later. Following another 1.5 h, PC was administered. Food was returned 3.5 h after APAP administration (Day 1). Weight was determined three times: on Day 0 before food was taken, after over-night fasting (Day 1, just before APAP administration) and before sacrifice (Day 2, 24 hours after APAP administration).

[5] = Table 2, serum 24 h after APAP, PO, APAP 4 mg/mouse alone or + NAC 3 mg/mouse
[6] = Table 3, 24 h, PO, APAP 4 mg/mouse alone or + NAC 3 mg/mouse
[7] = Table 4, 24 h, PO, APAP 4 mg/mouse alone or + NAC 3.5 mg/mouse
[8] = Table 6, 24 h, PO, APAP 4 mg/mouse alone or + NAC 3.5 mg/mouse
[9] = Table 8, 24 h, PO, APAP 4 mg/mouse alone or + NAC 3 mg/mouse
[10] = Table 11, 24 h, PO, per mouse APAP 4 mg, NAC 3.5 mg, PC 0.9 mg after 3 h
[11] = Table 14, 24 h, PO, APAP 4 mg/mouse alone or + NAC 3.5 mg, PC 0.9 mg after 3 h
[12] = Table 14, 24 h, PO, APAP 4.6 mg/mouse alone or + NAC 3.5 mg, PC 0.9 mg after 3 h
[13] = Table 17, 24 h, PO, per mouse APAP 4 mg, NAC 3.5 mg, MSM 1.5 mg
[14] = Table 20, 24 h, PO, APAP 7 mg/mouse alone or + NAC 3.5 mg/mouse
[15] = Table 23, 24 h, PO, per mouse APAP 4 mg, MSM 0.15 mg, IB 0.1 mg
[16] = Table 27, 24 h, PO, per mouse APAP 4.6 mg, NAC/Cys/Met 3.5 mg, PC 0.9 mg, MSM 0.2 mg, IB 0.1 mg
[17] = Table 30, APAP 4.6 mg with NAC/Cys/Met 3.5 mg, MSM 0.1 mg + IB 0.1 mg after 1.5 h, PC 0.9 mg after 3 h
[18] = Table 33, 24 h, PO, per mouse APAP 4.6 mg, NAC/Cys/Met 3.5 mg
[19] = Table 12, per mouse APAP 4 mg, NAC 3.5 mg, PC 0.9 mg after 3 h
[20] = Table 15, APAP 4 mg/mouse alone or + NAC 3.5 mg, PC 0.9 mg after 3 h
[21] = Table 15, APAP 4.6 mg/mouse alone or + NAC 3.5 mg, PC 0.9 mg after 3 h
[22] = Table 21, APAP 7 mg/mouse alone or + NAC 3.5 mg/mouse

## CC(=O)Nc1ccc(O)cc1 [APAP, N-(4-hydroxyphenyl)acetamide]
[1]
  IFN-γ levels secreted by ConA-activated splenocytes: 259 pg/mL
Toxicity induced by APAP [2]; FIG. 1, groups of Table 5, 24 h after APAP 4 mg/mouse
  histological liver sections: diffuse damage to hepatocytes
Toxicity induced by APAP [2]; FIG. 2, groups of Table 7, 24 h after APAP 4 mg/mouse
  histological liver sections: diffuse damage to hepatocytes
Toxicity induced by APAP [2]; FIG. 3, groups of Table 10, 24 h after APAP 4 mg/mouse
  histological liver sections: diffuse damage to hepatocytes
Toxicity induced by APAP [2]; FIG. 4, groups of Table 16, 24 h after APAP 4 mg/mouse
  histological liver sections: diffuse damage to hepatocytes
Toxicity induced by APAP [2]; FIG. 6, groups of Table 26, 24 h after APAP 4.6 mg/mouse
  histological liver sections: diffuse damage to hepatocytes
Toxicity induced by APAP [2]; FIG. 7, groups of Table 29, 24 h after APAP 4.6 mg/mouse
  histological liver sections: diffuse damage to hepatocytes
Toxicity induced by APAP [2]; FIG. 8, groups of Table 32, 24 h after APAP 4.6 mg/mouse
  histological liver sections: diffuse damage to hepatocytes
Toxicity induced by APAP [3]; [5]
  ALT (average ± std. dev.): 14,360 ± 4,370.52 IU/L
  AST (average ± std. dev.): 18,920.00 ± 12,192.04 IU/L
Toxicity induced by APAP [3]; [6]
  ALT (average ± std. dev.): 5,617.50 ± 1,832.77 IU/L
  AST (average ± std. dev.): 3,672.67 ± 1,965.99 IU/L
Toxicity induced by APAP [3]; [7]
  ALT (average ± std. dev.): 8,880.00 ± 2,624.31 IU/L
  AST (average ± std. dev.): 5,848.67 ± 1,993.43 IU/L
Toxicity induced by APAP [3]; [8]
  ALT (average ± std. dev.): 7,790.0 ± 2,175.9 IU/L
  AST (average ± std. dev.): 4,883.3 ± 1,549.4 IU/L
Toxicity induced by APAP [3]; [9]
  ALT (average ± std. dev.): 6,421.67 ± 2,914.38 IU/L
  AST (average ± std. dev.): 3,686.67 ± 2,168.08 IU/L
Toxicity induced by APAP [3]; [10]
  ALT (average ± std. dev.): 7,530.00 ± 2,339.06 IU/L
  AST (average ± std. dev.): 4,988.67 ± 878.44 IU/L
Toxicity induced by APAP [3]; [11]
  ALT (average ± std. dev.): 5,739.25 ± 2,536.44 IU/L
  AST (average ± std. dev.): 4,374.00 ± 2,384.21 IU/L
Toxicity induced by APAP [3]; [12]
  ALT (average ± std. dev.): 7,772.50 ± 1,771.00 IU/L
  AST (average ± std. dev.): 6,310.00 ± 2,127.07 IU/L
Toxicity induced by APAP [3]; [13]
  ALT (average ± std. dev.): 9,040 ± 3,472.64 IU/L
  AST (average ± std. dev.): 6,560 ± 2,618.34 IU/L
Toxicity induced by APAP [3]; [14]
  ALT (average ± std. dev.): 20,160.00 ± 9,678.28 IU/L
  AST (average ± std. dev.): 20,001.00 ± 11,998.16 IU/L
Toxicity induced by APAP [3]; [15]
  ALT (average ± std. dev.): 8,918.00 ± 2,955.74 IU/L
  AST (average ± std. dev.): 6,586.67 ± 4,204.58 IU/L
Toxicity induced by APAP [3]; Table 25, 24 h, PO, per mouse APAP 4 mg, MSM 0.25 mg, IB 0.1 mg
  AST (average ± std. dev.): 4,303.33 ± 2,163.30 IU/L
Toxicity induced by APAP [3]; [16]
  ALT (average ± std. dev.): 10285.00 ± 4435.22 IU/L
  AST (average ± std. dev.): 7796.00 ± 5000.46 IU/L
Toxicity induced by APAP [3]; [17]
  ALT (average ± std. dev.): 11210.83 ± 7589.19 IU/L
  AST (average ± std. dev.): 10577.33 ± 11375.63 IU/L
Toxicity induced by APAP [3]; [18]
  ALT (average ± std. dev.): 9002.50 ± 4211.03 IU/L
  AST (average ± std. dev.): 5684.00 ± 2307.64 IU/L
[4]; Example 4, Table 9, APAP 4 mg/mouse only
  decrease in body weight during the two days of the experiment: 6%
[4]; Example 8, Table 28, APAP 4.6 mg only
  decrease in body weight during the two days of the experiment: more than 8%
[4]; Example 8, Table 31, APAP 4.6 mg only
  decrease in body weight during the two days of the experiment: more than 8%
[4]; Example 8, Table 34, APAP 4.6 mg only
  decrease in body weight during the two days of the experiment: more than 6%
[4]; Table 9, APAP 4 mg/mouse alone or + NAC 3 mg/mouse, PO
  Weight ratio Day 0-Day 2: 94.17%
[4]; [19]
  Weight difference Day 1 − Day 2: 1.17
  Weight ratio Day 1-Day 2: 105%
[4]; [20]
  Weight difference Day 1 − Day 2: 2.07
  Weight ratio Day 1-Day 2: 108%
[4]; [21]
  Weight difference Day 1 − Day 2: 1.02
  Weight ratio Day 1-Day 2: 104%
[4]; Table 18, per mouse APAP 4 mg, NAC 3.5 mg, MSM 1.5 mg
  Weight difference Day 1 − Day 2: 1.05
[4]; [22]
  Weight difference Day 1 − Day 2: −0.45
  Weight ratio Day 1-Day 2: 98%
[4]; Table 28, per mouse APAP 4.6 mg, NAC/Cys/Met 3.5 mg, PC 0.9 mg, MSM 0.2 mg, IB 0.1 mg
  Weight ratio Day 0-Day 2: 91.59%
[4]; Table 31, APAP 4.6 mg with NAC/Cys/Met 3.5 mg, MSM 0.1 mg + IB 0.1 mg after 1.5 h, PC 0.9 mg after 3 h
  Weight ratio Day 0-Day 2: 91.23%
[4]; Table 34, per mouse APAP 4.6 mg, NAC/Cys/Met 3.5 mg
  Weight ratio Day 0-Day 2: 93.26%

## COc1cc([C@H]2Oc3ccc([C@H]4Oc5cc(O)cc(O)c5C(=O)[C@@H]4O)cc3O[C@@H]2CO)ccc1O [IA, Isosilybin A]
Toxicity induced by APAP [3]
  effect on liver enzymes serum levels: ineffective in reducing liver enzymes serum levels
  beneficial effect on acetaminophen-induced liver toxicity: did not show a beneficial effect

## COc1cc([C@@H]2Oc3cc([C@H]4Oc5cc(O)cc(O)c5C(=O)[C@@H]4O)ccc3O[C@H]2CO)ccc1O [silybin B]
Toxicity induced by APAP [3]
  effect on liver enzymes serum levels: ineffective in reducing liver enzymes serum levels
  beneficial effect on acetaminophen-induced liver toxicity: did not show a beneficial effect
